# Laboratory results from ChEMBL document CHEMBL1201862, “PubChem BioAssay data set” (2004).
#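 1) Cells in 96-well plates. 2) Compound, 48 h, 5 concentrations. 3) Linear interpolation between surrounding doses. 4) Unreached endpoint = highest concentration. GI50 marks 50% less growth.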 Activity calls are given as the source filed them. Rule as the data show it: active = GI50 up to about 1.1 µM and inactive = higher.
# Assays:
# Experiment in all cases: DTP human tumour cell line panel, 48 h
# [1] = tested on: 786-0
# [2] = tested on: A498
# [3] = tested on: A549
# [4] = tested on: ACHN
# [5] = tested on: CAKI-1
# [6] = tested on: CCRF-CEM
# [7] = tested on: COLO 205
# [8] = tested on: DLD-1
# [9] = tested on: DMS-273
# [10] = tested on: EKVX
# [11] = tested on: HCC 2998
# [12] = tested on: HCT-116
# [13] = tested on: HL-60
# [14] = tested on: HOP-18
# [15] = tested on: HOP-62
# [16] = tested on: HT-29
# [17] = tested on: IGROV-1
# [18] = tested on: K562
# [19] = tested on: KM-20L2
# [20] = tested on: KM12
# [21] = tested on: LOX IMVI
# [22] = tested on: LXFL 529
# [23] = tested on: M14
# [24] = tested on: M19-MEL
# [25] = tested on: MOLT-4
# [26] = tested on: Malme-3M
# [27] = tested on: NCI-H226
# [28] = tested on: NCI-H23
# [29] = tested on: NCI-H460
# [30] = tested on: NCI-H522
# [31] = tested on: OVCAR-3
# [32] = tested on: OVCAR-4
# [33] = tested on: OVCAR-5
# [34] = tested on: OVCAR-8
# [35] = tested on: RXF 393
# [36] = tested on: SF-268
# [37] = tested on: SF-295
# [38] = tested on: SK-MEL-28
# [39] = tested on: SK-MEL-2
# [40] = tested on: SK-MEL-5
# [41] = tested on: SK-OV-3
# [42] = tested on: SN12C
# [43] = tested on: SNB-19
# [44] = tested on: SNB-75
# [45] = tested on: SR
# [46] = tested on: SW-620
# [47] = tested on: TK-10
# [48] = tested on: U-251
# [49] = tested on: UACC-257
# [50] = tested on: UACC-62
# [51] = tested on: UO-31
# [52] = tested on: XF498
# [53] = tested on: DMS-114
# [54] = tested on: HCT-15
# [55] = tested on: HOP-92
# [56] = tested on: RPMI-8226
# [57] = tested on: SF-539
# [58] = tested on: SNB-78
structure (smiles),measurement,setting,value
Cc1[nH]c2ccccc2c1C(=O)/C=C/c1ccccc1O,GI50,[1],> 100 µM (inactive)
same,GI50,[2],> 100 µM (inactive)
same,GI50,[3],> 100 µM (inactive)
same,GI50,[4],> 100 µM (inactive)
same,GI50,[5],> 100 µM (inactive)
same,GI50,[6],> 100 µM (inactive)
same,GI50,[7],> 100 µM (inactive)
same,GI50,[8],> 100 µM (inactive)
same,GI50,[9],> 100 µM (inactive)
same,GI50,[10],> 100 µM (inactive)
same,GI50,[11],> 100 µM (inactive)
same,GI50,[12],> 100 µM (inactive)
same,GI50,[13],> 100 µM (inactive)
same,GI50,[14],> 100 µM (inactive)
same,GI50,[15],> 100 µM (inactive)
same,GI50,[16],> 100 µM (inactive)
same,GI50,[17],> 100 µM (inactive)
same,GI50,[18],> 100 µM (inactive)
same,GI50,[19],> 100 µM (inactive)
same,GI50,[20],> 100 µM (inactive)
same,GI50,[21],> 100 µM (inactive)
same,GI50,[22],> 100 µM (inactive)
same,GI50,[23],> 100 µM (inactive)
same,GI50,[24],> 100 µM (inactive)
same,GI50,[25],> 100 µM (inactive)
same,GI50,[26],> 100 µM (inactive)
same,GI50,[27],> 10 µM (inactive)
same,GI50,[28],> 100 µM (inactive)
same,GI50,[29],> 100 µM (inactive)
same,GI50,[30],> 100 µM (inactive)
same,GI50,[31],> 100 µM (inactive)
same,GI50,[32],> 100 µM (inactive)
same,GI50,[33],> 100 µM (inactive)
same,GI50,[34],> 100 µM (inactive)
same,GI50,[35],> 100 µM (inactive)
same,GI50,[36],> 100 µM (inactive)
same,GI50,[37],> 100 µM (inactive)
same,GI50,[38],> 100 µM (inactive)
same,GI50,[39],> 100 µM (inactive)
same,GI50,[40],> 100 µM (inactive)
same,GI50,[41],> 100 µM (inactive)
same,GI50,[42],> 100 µM (inactive)
same,GI50,[43],> 100 µM (inactive)
same,GI50,[44],> 100 µM (inactive)
same,GI50,[45],> 100 µM (inactive)
same,GI50,[46],> 100 µM (inactive)
same,GI50,[47],> 100 µM (inactive)
same,GI50,[48],> 100 µM (inactive)
same,GI50,[49],> 100 µM (inactive)
same,GI50,[50],> 100 µM (inactive)
same,GI50,[51],> 100 µM (inactive)
same,GI50,[52],> 100 µM (inactive)
CCOC(=O)/C=C(\C)c1ccc(OC)cc1,GI50,[2],89.3 µM (inactive)
same,GI50,[3],> 100 µM (inactive)
same,GI50,[4],74.1 µM (inactive)
same,GI50,[5],> 100 µM (inactive)
same,GI50,[7],> 100 µM (inactive)
same,GI50,[8],> 100 µM (inactive)
same,GI50,[53],> 100 µM (inactive)
same,GI50,[9],> 100 µM (inactive)
same,GI50,[10],> 100 µM (inactive)
same,GI50,[11],> 100 µM (inactive)
same,GI50,[12],> 100 µM (inactive)
same,GI50,[54],> 100 µM
same,GI50,[13],> 100 µM (inactive)
same,GI50,[14],> 100 µM (inactive)
same,GI50,[55],> 100 µM (inactive)
same,GI50,[16],88.9 µM (inactive)
same,GI50,[17],> 100 µM (inactive)
same,GI50,[19],> 100 µM (inactive)
same,GI50,[20],> 100 µM (inactive)
same,GI50,[21],> 100 µM (inactive)
same,GI50,[22],> 100 µM (inactive)
same,GI50,[23],> 100 µM (inactive)
same,GI50,[26],> 100 µM (inactive)
same,GI50,[27],> 100 µM (inactive)
same,GI50,[28],> 100 µM (inactive)
same,GI50,[29],> 100 µM (inactive)
same,GI50,[32],> 100 µM (inactive)
same,GI50,[33],> 100 µM (inactive)
same,GI50,[34],> 100 µM (inactive)
same,GI50,[56],> 100 µM (inactive)
same,GI50,[35],> 100 µM (inactive)
same,GI50,[36],> 100 µM (inactive)
same,GI50,[37],> 100 µM (inactive)
same,GI50,[57],> 100 µM (inactive)
same,GI50,[38],> 100 µM (inactive)
same,GI50,[39],> 100 µM (inactive)
same,GI50,[40],> 100 µM (inactive)
same,GI50,[42],> 100 µM (inactive)
same,GI50,[43],> 100 µM (inactive)
same,GI50,[44],> 100 µM (inactive)
same,GI50,[58],> 100 µM (inactive)
same,GI50,[45],> 100 µM (inactive)
same,GI50,[46],> 100 µM (inactive)
same,GI50,[47],> 100 µM (inactive)
same,GI50,[48],> 100 µM (inactive)
same,GI50,[49],> 100 µM (inactive)
same,GI50,[51],> 100 µM (inactive)
same,GI50,[52],> 100 µM (inactive)
CC1(C)OC(C[C@]2(C#N)C[C@H](CCl)OC(C)(C)O2)C[C@@H](C[C@]2(C#N)C[C@H](CCl)OC(C)(C)O2)O1 (some centres not stated),GI50,[1],> 100 µM (inactive)
same,GI50,[2],> 100 µM (inactive)
same,GI50,[3],> 100 µM (inactive)
same,GI50,[4],> 100 µM (inactive)
same,GI50,[5],> 100 µM (inactive)
same,GI50,[6],> 100 µM (inactive)
same,GI50,[7],> 100 µM (inactive)
same,GI50,[8],> 100 µM (inactive)
same,GI50,[9],> 100 µM (inactive)
same,GI50,[10],> 100 µM (inactive)
same,GI50,[11],> 100 µM (inactive)
same,GI50,[12],60.4 µM (inactive)
same,GI50,[54],> 100 µM
same,GI50,[13],> 100 µM (inactive)
same,GI50,[14],> 100 µM (inactive)
same,GI50,[15],> 100 µM (inactive)
same,GI50,[55],> 100 µM (inactive)
same,GI50,[16],> 100 µM (inactive)
same,GI50,[17],> 100 µM (inactive)
same,GI50,[18],> 100 µM (inactive)
same,GI50,[19],> 100 µM (inactive)
same,GI50,[20],> 100 µM (inactive)
same,GI50,[21],> 100 µM (inactive)
same,GI50,[22],> 100 µM (inactive)
same,GI50,[23],> 100 µM (inactive)
same,GI50,[24],> 100 µM (inactive)
same,GI50,[25],38.8 µM (inactive)
same,GI50,[26],> 100 µM (inactive)
same,GI50,[27],> 100 µM (inactive)
same,GI50,[28],> 100 µM (inactive)
same,GI50,[29],> 100 µM (inactive)
same,GI50,[30],> 100 µM (inactive)
same,GI50,[31],> 100 µM (inactive)
same,GI50,[32],> 100 µM (inactive)
same,GI50,[33],> 100 µM (inactive)
same,GI50,[34],> 100 µM (inactive)
same,GI50,[56],> 100 µM (inactive)
same,GI50,[36],> 100 µM (inactive)
same,GI50,[37],> 100 µM (inactive)
same,GI50,[57],> 100 µM (inactive)
same,GI50,[38],> 100 µM (inactive)
same,GI50,[39],> 100 µM (inactive)
same,GI50,[40],51.6 µM (inactive)
same,GI50,[41],> 100 µM (inactive)
same,GI50,[42],> 100 µM (inactive)
same,GI50,[43],> 100 µM (inactive)
same,GI50,[44],> 100 µM (inactive)
same,GI50,[58],> 100 µM (inactive)
same,GI50,[45],20 µM (inactive)
same,GI50,[46],> 100 µM (inactive)
same,GI50,[47],> 100 µM (inactive)
same,GI50,[48],> 100 µM (inactive)
same,GI50,[49],17.3 µM (inactive)
same,GI50,[50],> 100 µM (inactive)
same,GI50,[52],> 100 µM (inactive)
OCCNCN(CNCCO)c1nc(N(CNCCO)CNCCO)nc(N(CNCCO)CNCCO)n1,GI50,[2],0.0764 µM (active)
same,GI50,[3],0.0711 µM (active)
same,GI50,[4],0.04 µM (active)
same,GI50,[6],0.04 µM (active)
same,GI50,[7],0.0411 µM (active)
same,GI50,[8],0.04 µM (active)
same,GI50,[9],> 0.4 µM (active)
same,GI50,[10],0.0679 µM (active)
same,GI50,[54],0.0556 µM
same,GI50,[14],0.0841 µM (active)
same,GI50,[15],0.0687 µM (active)
same,GI50,[55],0.0743 µM (active)
same,GI50,[16],> 0.4 µM (active)
same,GI50,[17],0.0757 µM (active)
same,GI50,[18],0.04 µM (active)
same,GI50,[19],0.103 µM (active)
same,GI50,[20],0.137 µM (active)
same,GI50,[21],0.0916 µM (active)
same,GI50,[22],0.04 µM (active)
same,GI50,[23],0.0577 µM (active)
same,GI50,[24],0.0405 µM (active)
same,GI50,[25],0.0873 µM (active)
same,GI50,[26],0.04 µM (active)
same,GI50,[27],0.0802 µM (active)
same,GI50,[28],0.0655 µM (active)
same,GI50,[29],0.118 µM (active)
same,GI50,[30],0.0653 µM (active)
same,GI50,[31],0.0908 µM (active)
same,GI50,[32],0.0715 µM (active)
same,GI50,[33],0.146 µM (active)
same,GI50,[34],0.0755 µM (active)
same,GI50,[35],0.0676 µM (active)
same,GI50,[36],0.0578 µM (active)
same,GI50,[37],0.082 µM (active)
same,GI50,[57],0.075 µM (active)
same,GI50,[38],0.04 µM (active)
same,GI50,[39],0.0838 µM (active)
same,GI50,[41],0.0861 µM (active)
same,GI50,[42],0.131 µM (active)
same,GI50,[43],0.0708 µM (active)
same,GI50,[58],0.0959 µM (active)
same,GI50,[46],0.04 µM (active)
same,GI50,[47],0.133 µM (active)
same,GI50,[48],0.0745 µM (active)
same,GI50,[49],0.0643 µM (active)
same,GI50,[51],0.0851 µM (active)
same,GI50,[52],> 0.4 µM (active)
